What was measured:
Experiment in all cases: Eurofins DiscoverX SAFETYscan off-target panel
Type in all cases: cell-based
OPRD1 = OPRD1 (Homo sapiens, UniProt P41143)
OPRM1 = OPRM1 (Homo sapiens, UniProt P35372)
HTR2A = HTR2A (Homo sapiens, UniProt P28223)
HTR1A = target: T1, HTR1A (Homo sapiens, UniProt P08908)
T1 sequence (P08908 1-422): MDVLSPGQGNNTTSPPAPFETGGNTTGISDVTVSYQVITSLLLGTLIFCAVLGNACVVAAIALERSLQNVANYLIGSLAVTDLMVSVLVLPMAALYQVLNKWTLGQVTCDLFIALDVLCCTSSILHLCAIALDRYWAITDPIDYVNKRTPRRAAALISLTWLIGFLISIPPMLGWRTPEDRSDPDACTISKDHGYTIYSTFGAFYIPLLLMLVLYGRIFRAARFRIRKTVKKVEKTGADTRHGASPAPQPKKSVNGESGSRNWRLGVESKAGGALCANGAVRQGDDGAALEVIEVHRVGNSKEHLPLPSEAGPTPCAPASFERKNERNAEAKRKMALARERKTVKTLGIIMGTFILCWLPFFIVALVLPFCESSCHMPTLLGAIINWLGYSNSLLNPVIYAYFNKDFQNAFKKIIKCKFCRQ

androgen receptor (AR) = target: T2, androgen receptor (AR) (Homo sapiens, UniProt P10275)
T2 sequence (P10275 1-920): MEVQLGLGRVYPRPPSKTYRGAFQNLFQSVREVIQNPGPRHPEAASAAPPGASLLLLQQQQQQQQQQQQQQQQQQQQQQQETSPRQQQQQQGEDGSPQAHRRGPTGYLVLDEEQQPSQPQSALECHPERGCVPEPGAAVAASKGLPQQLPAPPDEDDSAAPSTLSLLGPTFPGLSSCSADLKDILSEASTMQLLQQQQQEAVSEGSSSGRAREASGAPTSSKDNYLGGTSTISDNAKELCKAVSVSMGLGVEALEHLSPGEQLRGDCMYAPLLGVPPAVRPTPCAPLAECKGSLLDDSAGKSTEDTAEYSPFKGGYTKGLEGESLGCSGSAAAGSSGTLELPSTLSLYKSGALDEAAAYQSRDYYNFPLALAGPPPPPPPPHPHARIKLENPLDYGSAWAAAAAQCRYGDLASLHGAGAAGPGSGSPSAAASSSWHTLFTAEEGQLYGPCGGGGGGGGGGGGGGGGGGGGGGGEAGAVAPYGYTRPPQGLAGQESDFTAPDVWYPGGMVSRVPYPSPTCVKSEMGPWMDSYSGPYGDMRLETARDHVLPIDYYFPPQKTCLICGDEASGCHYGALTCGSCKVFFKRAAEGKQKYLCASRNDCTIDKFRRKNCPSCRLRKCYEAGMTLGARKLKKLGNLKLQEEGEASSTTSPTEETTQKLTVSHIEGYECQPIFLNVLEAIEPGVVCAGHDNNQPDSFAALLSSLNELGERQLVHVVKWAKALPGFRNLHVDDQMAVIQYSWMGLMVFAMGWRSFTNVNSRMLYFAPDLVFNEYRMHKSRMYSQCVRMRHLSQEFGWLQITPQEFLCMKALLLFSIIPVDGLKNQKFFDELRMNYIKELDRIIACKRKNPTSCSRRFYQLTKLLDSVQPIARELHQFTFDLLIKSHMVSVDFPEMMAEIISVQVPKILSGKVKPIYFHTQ

ADRA2A = target: T3, ADRA2A (Homo sapiens, UniProt P08913)
T3 sequence (P08913 1-465): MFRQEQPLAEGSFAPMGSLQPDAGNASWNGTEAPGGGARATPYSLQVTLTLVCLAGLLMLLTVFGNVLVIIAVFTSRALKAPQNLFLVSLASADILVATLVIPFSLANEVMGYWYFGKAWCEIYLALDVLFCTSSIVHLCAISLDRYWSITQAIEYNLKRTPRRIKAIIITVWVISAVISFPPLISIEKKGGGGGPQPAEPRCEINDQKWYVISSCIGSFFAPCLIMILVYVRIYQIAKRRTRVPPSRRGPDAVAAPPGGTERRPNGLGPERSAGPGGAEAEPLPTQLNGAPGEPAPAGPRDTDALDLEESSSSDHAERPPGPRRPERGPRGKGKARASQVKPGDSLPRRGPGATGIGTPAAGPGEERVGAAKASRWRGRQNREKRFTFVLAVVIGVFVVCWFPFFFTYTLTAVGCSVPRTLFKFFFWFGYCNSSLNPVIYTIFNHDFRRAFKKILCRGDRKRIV

Sequence of OPRD1 (P41143 whole entry): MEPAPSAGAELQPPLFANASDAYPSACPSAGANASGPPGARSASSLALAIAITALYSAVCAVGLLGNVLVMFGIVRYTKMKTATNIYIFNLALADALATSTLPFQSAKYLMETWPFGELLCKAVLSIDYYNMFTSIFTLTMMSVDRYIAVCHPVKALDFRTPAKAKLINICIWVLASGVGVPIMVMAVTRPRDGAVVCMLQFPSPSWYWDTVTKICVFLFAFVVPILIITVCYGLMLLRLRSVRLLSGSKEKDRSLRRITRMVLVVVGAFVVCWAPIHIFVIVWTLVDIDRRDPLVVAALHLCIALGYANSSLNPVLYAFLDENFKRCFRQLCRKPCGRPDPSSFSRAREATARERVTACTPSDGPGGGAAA
Sequence of OPRM1 (P35372 whole entry): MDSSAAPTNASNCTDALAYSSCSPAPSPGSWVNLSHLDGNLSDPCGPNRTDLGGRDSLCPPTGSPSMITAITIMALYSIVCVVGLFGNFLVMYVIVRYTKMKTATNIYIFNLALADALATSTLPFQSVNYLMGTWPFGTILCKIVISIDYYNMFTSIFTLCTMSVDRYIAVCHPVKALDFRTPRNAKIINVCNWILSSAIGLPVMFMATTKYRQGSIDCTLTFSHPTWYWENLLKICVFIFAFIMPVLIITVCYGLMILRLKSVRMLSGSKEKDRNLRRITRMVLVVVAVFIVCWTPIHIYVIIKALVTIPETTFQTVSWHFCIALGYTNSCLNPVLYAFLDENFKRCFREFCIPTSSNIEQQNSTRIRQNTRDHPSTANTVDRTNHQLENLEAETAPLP
Sequence of HTR2A (P28223 whole entry): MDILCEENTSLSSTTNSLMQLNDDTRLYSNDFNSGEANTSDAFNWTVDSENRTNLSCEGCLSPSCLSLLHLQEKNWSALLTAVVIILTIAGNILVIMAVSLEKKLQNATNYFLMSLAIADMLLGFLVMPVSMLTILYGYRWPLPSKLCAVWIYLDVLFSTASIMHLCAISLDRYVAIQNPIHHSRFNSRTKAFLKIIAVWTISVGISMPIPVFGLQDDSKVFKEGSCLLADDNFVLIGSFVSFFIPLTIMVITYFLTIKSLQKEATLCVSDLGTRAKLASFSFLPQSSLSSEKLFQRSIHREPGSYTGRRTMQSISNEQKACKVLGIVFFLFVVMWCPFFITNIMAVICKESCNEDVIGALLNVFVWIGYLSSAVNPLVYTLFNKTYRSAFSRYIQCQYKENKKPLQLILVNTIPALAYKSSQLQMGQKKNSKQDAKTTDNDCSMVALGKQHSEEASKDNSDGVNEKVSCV

SMILES | EC50 (OPRD1) | IC50 (OPRM1) | IC50 (HTR2A) | IC50 (HTR1A) | IC50 (androgen receptor (AR)) | IC50 (ADRA2A)
CC(=O)c1ccc2c(c1)[C@@H]1C=CC[C@@H]1[C@H](c1cc3c(cc1Br)OCO3)N2 (racemic) [LNS8801, 1-[(3aS,4R,9bR)-4-(6-bromo-1,3-benzodioxol-5-yl)-3a,4,5,9b-tetrahydro-3H-cyclopenta[c]quinolin-8-yl] ethanone] | 870 nM | 3500 nM | 8200 nM | – | – | –
CC(=O)c1ccc2c(c1)C1C=CCC1C(c1cc3c(cc1Br)OCO3)N2 (racemic) [LNS8812] | – | – | – | 2000 nM | 4800 nM | 2000 nM
